This is an account of results in patent US20230382923A1, “FUSED TETRACYCLIC QUINAZOLINE DERIVATIVES AS INHIBITORS OF ERBB2” (EnLiven Therapeutics, Inc., priority 2021, published 2023).

The test system of one experiment is Ba/F3 ERBB2 YVMA. The experiment can be described thus: Cell viability assay (CellTiter Glo, 72 hours). It counts as cell-based, mouse. Particulars: Mus musculus, BaF3, 72 h, read-out: Ba/F3 ERBB2 YVMA, IC50, nM. The protocol: Cells were treated with compounds, and cell viability was measured as a metric of kinase inhibition.
BT-474, A431, MDA-MB-175VII, NCI-H1781, MCF7, and Ba/F3 cell lines were tested. The Ba/F3 cell line is IL-3-dependent mouse cell line derived from the C3H mouse strain. Ba/F3 cell lines were engineered to express human ERBB2 or EGFR kinases, rendering the cells IL-3 independent. The lines were generated via retroviral transduction utilizing a Moloney murine leukemia virus (MMLV) promoter, and constructs are stably integrated into the cell genome. The sequences of the ERBB2 and EGFR genes used were NCBI Reference Sequences NM_004448.3 and NM_005228.3, respectively.
BT-474, A431, MDA-MB-175VII, NCI-H1781 and MCF7 cells were grown in the appropriate growth medium as described in Table B2 below, and harvested at 50-80% confluence. BT-474, A431, MDA-MB-175VII, NCI-H1781 and MCF7 cells were counted and seeded at 2,000 or 1,500 cells per well in 384-well tissue culture plates (see Table B2). Similarly, Ba/F3 cell lines engineered to express EGFR, ERBB2, or ERBB2 mutants were grown, harvested, counted and seeded at 3000 cells per well in 96-well plates. A subset of wells contained media only (low control, “LC”).
Table B1 provides the growth media and number of cells seeded per well for the each cell line.
Compounds were dissolved in DMSO and serially diluted. Serially-diluted compound or a DMSO only control (high control, “HC”) was added to the plated cells in each well. Compounds were tested at concentrations of about 10 μM to 0.51 nM, using three-fold dilutions. The final proportion of DMSO never exceeded 0.1%.
Plates were placed in a 37° C., 5% CO2 incubator for 72 hours. Plates were then removed from the incubator and equilibrated for 15 minutes at room temperature. 40 μl of CellTiter Glo reagent (Promega) was added to measure the relative level of metabolically active cells by quantifying intracellular ATP concentrations. Plates were incubated for 30 minutes at room temperature, and luminescence was measured. Percent viability was normalized to a vehicle control only using the following formula: % viability=100×(LumSample−LumLC)/(LumHC−LumLC). Graphical curves were fitted using a nonlinear regression model with a sigmoidal dose response.

Experiment [1] has as its target phosphorylated EGFR (pEGFR) (Homo sapiens (Human), UniProt P00533). The experiment can be described thus: Detection of phosphorylated EGFR (pEGFR) by AlphaLISA in A431 cells. The experiment is classed as cell-based. The conditions noted are these: A431 cells (10% FBS), 4 hours incubation, EGF 30 ng/mL for 10 minutes. In short, it runs like this:
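A431 cells in 10% FBS exposed to compound for 4 h at 37 °C, then stimulated 10 min with 30 ng/mL EGF. Lysates assayed for phospho-EGFR by AlphaLISA. % inhibition relative to DMSO and staurosporine controls; IC50 from four-parameter curve fit.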

Experiment [2] has as its target phosphorylated ERBB2 (pERBB2) (Homo sapiens (Human), UniProt P04626). The experiment can be described thus: Detection of phosphorylated ERBB2 (pERBB2) by ELISA in BT-474 cells. Particulars: four hours incubation with compound. The experiment is classed as cell-based. A digest of the protocol: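 BT-474 cells were exposed to serially diluted compounds for 4 h at 37 °C, then lysed. Phospho-ERBB2 in lysates was captured by ELISA and detected with an HRP anti-phosphotyrosine antibody and TMB.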
On the technique in general: In an ELISA, binding on a coated surface is turned into a signal by an enzyme label.

Sequence of phosphorylated EGFR (pEGFR) (P00533 25-1210): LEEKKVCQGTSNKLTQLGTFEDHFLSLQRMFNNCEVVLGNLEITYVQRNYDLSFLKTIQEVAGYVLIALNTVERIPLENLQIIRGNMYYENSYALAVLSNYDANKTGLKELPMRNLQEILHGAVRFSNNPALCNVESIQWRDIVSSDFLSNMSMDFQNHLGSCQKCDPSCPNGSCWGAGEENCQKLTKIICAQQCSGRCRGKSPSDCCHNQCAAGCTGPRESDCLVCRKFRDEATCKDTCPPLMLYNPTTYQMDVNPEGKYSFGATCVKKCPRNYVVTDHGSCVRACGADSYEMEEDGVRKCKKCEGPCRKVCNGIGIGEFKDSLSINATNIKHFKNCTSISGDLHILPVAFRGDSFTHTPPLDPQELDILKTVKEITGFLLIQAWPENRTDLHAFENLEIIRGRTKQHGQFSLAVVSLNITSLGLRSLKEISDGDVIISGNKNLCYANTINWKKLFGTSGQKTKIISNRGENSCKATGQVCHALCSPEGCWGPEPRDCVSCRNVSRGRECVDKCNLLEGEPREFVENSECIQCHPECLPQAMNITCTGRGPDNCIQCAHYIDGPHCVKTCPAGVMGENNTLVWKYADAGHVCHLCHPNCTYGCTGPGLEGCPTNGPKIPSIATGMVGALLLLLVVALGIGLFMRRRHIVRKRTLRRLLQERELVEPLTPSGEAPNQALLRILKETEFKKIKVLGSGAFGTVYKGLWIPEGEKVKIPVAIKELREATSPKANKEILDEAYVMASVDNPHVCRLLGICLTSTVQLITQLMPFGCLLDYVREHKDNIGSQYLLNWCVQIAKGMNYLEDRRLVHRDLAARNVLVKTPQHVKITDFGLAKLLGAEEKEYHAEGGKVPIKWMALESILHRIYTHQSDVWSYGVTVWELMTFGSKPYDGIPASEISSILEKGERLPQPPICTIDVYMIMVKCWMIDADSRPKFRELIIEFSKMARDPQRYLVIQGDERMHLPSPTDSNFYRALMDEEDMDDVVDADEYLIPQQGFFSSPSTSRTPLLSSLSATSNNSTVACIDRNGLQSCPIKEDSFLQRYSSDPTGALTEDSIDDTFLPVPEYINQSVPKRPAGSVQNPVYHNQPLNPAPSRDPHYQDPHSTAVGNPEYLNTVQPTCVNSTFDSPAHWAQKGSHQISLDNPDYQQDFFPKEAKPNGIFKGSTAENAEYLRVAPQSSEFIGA
Sequence of phosphorylated ERBB2 (pERBB2) (P04626 23-1255): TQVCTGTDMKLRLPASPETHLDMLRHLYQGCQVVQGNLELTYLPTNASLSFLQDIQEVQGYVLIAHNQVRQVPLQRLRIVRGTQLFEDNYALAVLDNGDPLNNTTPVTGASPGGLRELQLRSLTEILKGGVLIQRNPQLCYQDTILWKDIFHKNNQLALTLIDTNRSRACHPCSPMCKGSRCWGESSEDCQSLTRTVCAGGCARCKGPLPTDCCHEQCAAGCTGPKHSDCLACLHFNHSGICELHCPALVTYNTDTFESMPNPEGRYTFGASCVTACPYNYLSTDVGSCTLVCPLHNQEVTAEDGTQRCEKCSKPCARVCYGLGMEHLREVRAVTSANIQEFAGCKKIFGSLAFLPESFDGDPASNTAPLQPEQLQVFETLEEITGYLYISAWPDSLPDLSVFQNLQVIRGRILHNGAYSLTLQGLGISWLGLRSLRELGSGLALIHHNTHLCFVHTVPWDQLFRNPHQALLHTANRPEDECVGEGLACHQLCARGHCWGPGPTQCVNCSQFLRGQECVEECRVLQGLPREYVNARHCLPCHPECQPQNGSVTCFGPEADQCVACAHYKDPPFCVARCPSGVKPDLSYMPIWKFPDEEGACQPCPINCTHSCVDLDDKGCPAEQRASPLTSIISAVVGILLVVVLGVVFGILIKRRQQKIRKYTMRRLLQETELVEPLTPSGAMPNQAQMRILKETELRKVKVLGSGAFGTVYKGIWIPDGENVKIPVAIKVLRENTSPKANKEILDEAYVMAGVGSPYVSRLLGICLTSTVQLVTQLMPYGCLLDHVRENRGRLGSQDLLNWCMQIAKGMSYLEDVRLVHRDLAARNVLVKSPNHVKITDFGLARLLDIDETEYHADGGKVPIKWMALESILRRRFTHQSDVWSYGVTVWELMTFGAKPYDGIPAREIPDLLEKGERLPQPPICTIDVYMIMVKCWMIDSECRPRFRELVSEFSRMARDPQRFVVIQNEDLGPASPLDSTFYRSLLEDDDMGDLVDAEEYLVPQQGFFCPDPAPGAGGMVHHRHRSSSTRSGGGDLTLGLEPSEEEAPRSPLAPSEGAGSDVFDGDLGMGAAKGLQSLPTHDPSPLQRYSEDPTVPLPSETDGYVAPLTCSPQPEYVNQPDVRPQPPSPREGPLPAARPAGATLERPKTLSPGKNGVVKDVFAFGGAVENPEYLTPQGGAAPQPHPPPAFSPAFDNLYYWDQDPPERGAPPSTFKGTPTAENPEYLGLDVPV

For the compound `CCc1ccc(Oc2ccc(Nc3ncnc4cc5c(nc34)N3CCN(C(=O)/C=C/CN(C)C)C(CO5)C3)cc2C)cn1` (stereo in doubt) [Compound 38, (E)-4-(dimethylamino)-1-((10S)-4-((4-((6-ethylpyridin-3-yl)oxy)-3-methylphenyl)amino)-7,8,10,11-tetrahydro-9H-6,10-methanopyrimido[4′,5′:5,6]pyrido[3,2-b][1,4,7]oxadiazonin-9-yl)but-2-en-1-one formic acid], the IC50 in the experiment on Ba/F3 ERBB2 YVMA was 11.8 nM; in experiment [1], 3.08 µM; in experiment [2] it was 0.126 µM.

Consider `C=CC(=O)N1CCN2CC1COc1cc3ncnc(Nc4ccc(Oc5ccc6c(c5)ncn6C)c(C)c4)c3nc12` (stereo in doubt) [Compound 14, 1-((10S)-4-((3-methyl-4-((1-methyl-1H-benzo[d]imidazol-5-yl)oxy)phenyl)amino)-7,8,10,11-tetrahydro-9H-6,10-methanopyrimido[4′,5′:5,6]pyrido[3,2-b][1,4,7]oxadiazonin-9-yl)prop-2-en-1-one], for which the IC50 was found to be 21.6 nM with Ba/F3 ERBB2 YVMA, 0.532 µM in experiment [1] and 0.0438 µM in experiment [2].

In the case of `C=CC(=O)N1CCN2CC1COc1cc3ncnc(Nc4ccc(Oc5ccn6ccnc6c5)c(C)c4)c3nc12` (stereo in doubt) [Compound 33, 1-((10S)-4-((4-(imidazo[1,2-a]pyridin-7-yloxy)-3-methylphenyl)amino)-7,8,10,11-tetrahydro-9H-6,10-methanopyrimido[4′,5′:5,6]pyrido[3,2-b][1,4,7]oxadiazonin-9-yl)prop-2-en-1-one], the IC50 with Ba/F3 ERBB2 YVMA amounted to 12 nM; in experiment [1] it was 0.164 µM; in experiment [2], 0.0168 µM.

As to `Cc1cc(Nc2ncnc3cc4c(nc23)N2CCN(C(=O)/C=C/CN3CCC3)C(CO4)C2)ccc1Oc1ccn2ncnc2c1` (stereo in doubt) [Compound 26, (E)-1-((10S)-4-((4-([1,2,4]triazolo[1,5-a]pyridin-7-yloxy)-3-methylphenyl)amino)-7,8,10,11-tetrahydro-9H-6,10-methanopyrimido[4′,5′:5,6]pyrido[3,2-b][1,4,7]oxadiazonin-9-yl)-4-(azetidin-1-yl)but-2-en-1-one], the results for the IC50 (in the experiment with Ba/F3 ERBB2 YVMA; in experiment [1]; in experiment [2]) were 24.9 nM, more than 10 µM and 0.0411 µM, respectively.

Turning to `[2H]C([2H])([2H])N(C/C=C/C(=O)N1CCN2CC1COc1cc3ncnc(Nc4cc(C)c(Oc5ccn6ncnc6c5)cc4F)c3nc12)C([2H])([2H])[2H]` (stereo in doubt) [Compound 46, (E)-1-((10S)-4-((4-([1,2,4]triazolo[1,5-a]pyridin-7-yloxy)-2-fluoro-5-methylphenyl)amino)-7,8,10,11-tetrahydro-9H-6,10-methanopyrimido[4′,5′:5,6]pyrido[3,2-b][1,4,7]oxadiazonin-9-yl)-4-(bis(methyl-d3)amino)but-2-en-1-one], the IC50 worked out at 7.04 nM in the experiment on Ba/F3 ERBB2 YVMA, 2.47 µM in experiment [1] and 0.00684 µM in experiment [2].

`C=CC(=O)N1CCN2CC1COc1cc3ncnc(Nc4ccc(Oc5ccc(C)nc5)c(C)c4)c3nc12` (stereo in doubt) [Compound 20, 1-((10S)-4-((3-methyl-4-((6-methylpyridin-3-yl)oxy)phenyl)amino)-7,8,10,11-tetrahydro-9H-6,10-methanopyrimido[4′,5′:5,6]pyrido[3,2-b][1,4,7]oxadiazonin-9-yl)prop-2-en-1-one]: the results for the IC50 (in the experiment on Ba/F3 ERBB2 YVMA; in experiment [1]; in experiment [2]) were 5.28 nM, 0.192 µM and 0.0211 µM, respectively.
